{"source": "patent US20220409573A1", "about": "“Hippocampus Regeneration And Memory Recovery” (INNOBIOSCIENCE, LLC, priority 2021, published 2022)", "key": {"[1]": {"system": "Wnt/β-catenin pathway in hippocampal neurons", "test": "Wnt/β-catenin pathway activation in cultured hippocampal neurons (western blot, immunofluorescence)", "assay_type": "cell-based, rat", "description": "Primary culture of rat hippocampal neurons. Rat hippocampal cultures were prepared as previously described (Arrazola et al, 2009). On day 3 of culture, hippocampal cells were treated with […] 1-b-Darabinofuranosylcytosine (AraC) during 24 h to reduce the number of proliferating non-neuronal cells. […] PCR-ARRAY. RNA from hippocampal neurons was extracted using Trizol. Quantification and purity of RNA preparations were checked by absorbance using Nanodrop ND-2000. Only preparations with a 260/280 nm ratio≥1.8, a 260/230 nm ratio ≥1,7 and no sign of RNA degradations, verified by agarose gel electrophoresis with Gel Red TM were used. Genomic DNA was degraded. Using RT2First-Strand cDNA Synthesis kit (SuperArray), 1 μg total RNA was reverse transcribed and then real-time PCR was performed by adding cDNA directly to PCR Master Mix, containing SYBR Green and ROX. The mixtures were then aliquoted into a 96-well PCR array plates, which profiles the expression of 84 Wnt target genes from rat. The PCR was run on ABI StepOnePlus, with 1 cycle of 10 min at 95° C. followed by 40 cycles of 15 s at 95° C. and 1 min at 60° C. Cycle threshold (Ct) values were calculated for all the genes present on the array (Schmittgen & Livak, 2008).\nTreatment of neuronal cultures. Primary hippocampal cultures of neurons 14 DIV were washed twice in neurobasal medium and maintained for 1 hour.\nNuclear and cytoplasmatic extraction. Following a time-course treatment, neurons were washed with cold PBS and harvested in 600 μL of cold homogenization buffer (10 mM HEPES pH 7,9; 1,5 mM MgCl2; 10 mM KCl; 1 mM DTT). The cells were disrupted by 20 passed, back and forth, through a syringe of 1 mL. Lysates were centrifuged for 6 minutes at 700 g at 4° C. and the supernatant was removed. The precipitate was washed in 100 μL of buffer (20 mM HEPES pH=7,9; 420 mM NaCl; 1,5 mM MgCl2; 0,2 mM EDTA; 1 mM DTT; 25% glicerol) and centrifuged again to generate nuclear fraction. Cytosolic fractions were generated from the supernatantat 100.000 g for 1 h at 4° C. Both buffers were supplemented with protease inhibitors and serine-phosphatase. Nuclear and cytosolic fractions were subsequently subjected to western blotting.\nImmunoblotting. The samples were dissected on ice and immediately frozen in liquid nitrogen or processed has previously detailed (Inestrosa et al, 2011). Briefly, tissues were homogenized in RIPA buffer (10 mM Tris-Cl, pH 7.4, EDTA 5 mM, 1% NP-40, 1% sodium deoxycholate, and 1% SDS) supplemented with a protease inhibitor mixture (1 mM PMSF, 2 μg/mL aprotinin, 1 μg/mL pepstatin and 10 μg/mL benzamidine) and phosphatase inhibitors (25 mMNaF, 100 mM Na3VO4, 1 mM EDTA and 30 μM Na4P207) using a Potter homogenizator and then passed sequentially through different caliber syringes. Protein samples were centrifuged at 14000 rpm at 4° C. twice for 15 min. Protein concentration was determined using the BCA Protein Assay Kit (Pierce). Samples were resolved by […] 10% SDS-PAGE and transferred to a PVDF membrane. The reactions were followed by incubation with anti-mouse, anti-goat or anti-rabbit IgG peroxidase conjugated (Pierce, Rockford, Ill.) and developed using an ECL kit (Western Lightning Plus ECL, PerkinElmer).\nImmunofluorescence. Hippocampal neurons were seeded onto poly-L-lysine-coated cover slips in 24-well culture plates at a density of 5×10^4 cellsper well, as described previously (Arrazola et al, 2009; Chacon et al, 2008). A mouse monoclonal anti-b-catenin was used. Cells were extensively washed with PBS and then incubated with Alexa 488-conjugated anti-mouse IgG for 1 h at room temperature. Cells were mounted in mounting medium and analyzed in a Carl-Zeiss Confocal Laser Microscope."}, "[2]": {"system": "CA3-CA1 connections in hippocampal slices", "test": "Electrophysiology in Wt hippocampal slices (fEPSP, PPF, LTP, LTD)", "assay_type": "cell-based, mice", "description": "Slice Preparation and Electrophysiology. […] Slices were transferred to an experimental chamber (2 ml), superfused (3 ml/min, at 20-22° C.) with gassed ACSF and visualized by trans-illumination with a binocular microscope (MSZ-10, Nikon, Melville, N.Y.). To evoke field excitatory postsynaptic potentials (fEPSPs), we stimulate with bipolar concentric electrodes (Platinum/Iridium, 125 μm OD diameter, FHC Inc., Bowdoin, Me.) generated by a stimulator (Axon 700b, Molecular Devices, Sunnyvale, Calif.) and connected to an isolation unit (Isoflex, AMPI, Jerusalem, Israel) . The stimulation was in the Stratum Radiatum within 100-200 μm from the recording site. The paired pulse facilitation index was calculated by ((R2−R1)/R1), where R1 and R2 were the peak amplitudes of the first and second fEPSP respectively. To generate LTP we used Theta Burst Stimulation (TBS) consisting of 5 trains of stimulus with an inter-train interval of 20 s. Each train consisted of 10 bursts at 5 Hz and each burst having 4 pulses at 100 Hz. To generate LTD we used Low Frequency Stimulation (LFS) consisting in 900 paired pulses at 1 Hz. Recordings were filtered at 2.0-3.0 kHz, sampled at 4.0 kHz using an A/D converter, and stored with pClamp 10 (Molecular Devices). Evoked postsynaptic responses were analyzed off-line, using an analysis software (pClampfit, Molecular Devices), which allowed visual detection of events, computing only those events that exceeded and arbitrary threshold."}, "[3]": {"settings": "different concentrations for 6 h, 14 DIV neurons"}}, "data": [{"smiles": "C=C1CC[C@@H]2C(C)(CO)[C@H](O)CC[C@@]2(C)C1C/C=C1/C(=O)OC[C@H]1O", "note": "(stereo in doubt) [ANDRO, 3-(2-(Decahydro-6-hydroxy-5-(hydroxymethyl)-5,8a-dimethyl-2-methylenenaphthyl)ethylidene)dihydro-4-hydroxyfuran-2(3H)-one]", "values": [{"measurement": "β-catenin levels by immunofluorescence", "setting": "[1]; 5 μM for 6 h, 14 DIV neurons", "value": "increased β-catenin levels"}, {"measurement": "time of peak accumulation of cytoplasmic and nuclear β-catenin", "setting": "[1]; ANDRO 10 μM time course", "value": 9, "unit": "h"}, {"measurement": "time of maximum increase of the inhibited form of GSK-3β", "setting": "[1]; ANDRO 10 μM time course, cytoplasmic fraction", "value": 6, "unit": "h"}, {"measurement": "accumulation of β-catenin (western blot)", "setting": "[1]; [3]", "value": "accumulation of β-catenin in a concentration-dependent manner"}, {"measurement": "active form of GSK-3β (phosphor-Tyr-216)", "setting": "[1]; [3]", "value": "decrease in the active form"}, {"measurement": "inhibited form of GSK-3β (phospho-Ser-9)", "setting": "[1]; [3]", "value": "increase in the inhibited form of the enzyme"}, {"measurement": "fEPSP amplitude (basal synaptic transmission)", "setting": "[2]; ANDRO (5 μM), 30 min, Wt slices", "value": "increased the fEPSP amplitude"}, {"measurement": "paired pulse facilitation (PPF) ratio", "setting": "[2]; Wt slices", "value": "does not increase PPF ratio"}, {"measurement": "LTP induction or maintenance", "setting": "[2]; Wt slices in presence of ANDRO, TBS", "value": "do not observed alteration in the LTP induction or maintenance"}, {"measurement": "induction of LTD (fEPSP slope after LFS)", "setting": "[2]; hippocampal slices, 6-BIO 10 nM", "value": "LTD was inhibited"}]}]}
